According to US20240208992A1, “MACROCYCLES AS CFTR MODULATORS” (Idorsia Pharmaceuticals Ltd, priority 2021, published 2024):

Molecular target: human F508del-CFTR (Homo sapiens, UniProt P13569, DEL508-508)
Experiment: F508del-CFTR cell surface expression (corrector activity), DiscoveRx ß-galactosidase complementation chemiluminescence assay in recombinant U2OS cell line;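 further: U2OS cells co-expressing ProLink-tagged F508del-CFTR and a membrane-anchored enzyme acceptor, where more surface CFTR restores β-galactosidase activity measured by chemiluminescence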
Conditions: U2OS cell line, 16h compound incubation; for EC50: EC50, F508del-CFTR cell surface expression, geomean values; for Emax: U2OS, in relation to the Emax of the corrector lumacaftor (=100%), arithmetic mean values
Experimental: The method measures the effect of over-night compound incubation on F508del-CFTR cell surface expression in a recombinant U2OS cell line (DiscoveRx, #93-0987C3). This cell line is engineered to co-express (i) human F508del-CFTR tagged with a Prolink (PK=short ß-galactosidase fragment) and (ii) the remainder of the ß-galactosidase enzyme (Enzyme Acceptor; EA) localized to the plasma membrane. Incubation with compounds that increase PK-tagged F508del-CFTR at the plasma membrane will lead to complementation of the EA fragment to form a functional ß-galactosidase enzyme which is quantified by a chemiluminescence reaction.
The cells are incubated for 5h in the incubator before the addition of 5 μl/well of compound dilution series (5× working stocks in full medium). […] The cells are co-incubated with the compounds for 16h in the incubator at 37° C., 5% CO2. The next day, the cell plates are incubated for 2h at RT in the dark. […] Concentration-response curves are generated using compound-intrinsic maximal efficacy as upper plateau, and from these CRCs compound-intrinsic EC50 values are determined.
The calculated EC50 values may fluctuate depending on the daily assay performance. […] EC50 values from several measurements are given as geomean values. The calculated Emax values may fluctuate depending on the daily assay performance. […] Emax values from several measurements are given as arithmetic mean values.

Chain of human F508del-CFTR (P13569 with tags, fused parts or gaps DEL508-508): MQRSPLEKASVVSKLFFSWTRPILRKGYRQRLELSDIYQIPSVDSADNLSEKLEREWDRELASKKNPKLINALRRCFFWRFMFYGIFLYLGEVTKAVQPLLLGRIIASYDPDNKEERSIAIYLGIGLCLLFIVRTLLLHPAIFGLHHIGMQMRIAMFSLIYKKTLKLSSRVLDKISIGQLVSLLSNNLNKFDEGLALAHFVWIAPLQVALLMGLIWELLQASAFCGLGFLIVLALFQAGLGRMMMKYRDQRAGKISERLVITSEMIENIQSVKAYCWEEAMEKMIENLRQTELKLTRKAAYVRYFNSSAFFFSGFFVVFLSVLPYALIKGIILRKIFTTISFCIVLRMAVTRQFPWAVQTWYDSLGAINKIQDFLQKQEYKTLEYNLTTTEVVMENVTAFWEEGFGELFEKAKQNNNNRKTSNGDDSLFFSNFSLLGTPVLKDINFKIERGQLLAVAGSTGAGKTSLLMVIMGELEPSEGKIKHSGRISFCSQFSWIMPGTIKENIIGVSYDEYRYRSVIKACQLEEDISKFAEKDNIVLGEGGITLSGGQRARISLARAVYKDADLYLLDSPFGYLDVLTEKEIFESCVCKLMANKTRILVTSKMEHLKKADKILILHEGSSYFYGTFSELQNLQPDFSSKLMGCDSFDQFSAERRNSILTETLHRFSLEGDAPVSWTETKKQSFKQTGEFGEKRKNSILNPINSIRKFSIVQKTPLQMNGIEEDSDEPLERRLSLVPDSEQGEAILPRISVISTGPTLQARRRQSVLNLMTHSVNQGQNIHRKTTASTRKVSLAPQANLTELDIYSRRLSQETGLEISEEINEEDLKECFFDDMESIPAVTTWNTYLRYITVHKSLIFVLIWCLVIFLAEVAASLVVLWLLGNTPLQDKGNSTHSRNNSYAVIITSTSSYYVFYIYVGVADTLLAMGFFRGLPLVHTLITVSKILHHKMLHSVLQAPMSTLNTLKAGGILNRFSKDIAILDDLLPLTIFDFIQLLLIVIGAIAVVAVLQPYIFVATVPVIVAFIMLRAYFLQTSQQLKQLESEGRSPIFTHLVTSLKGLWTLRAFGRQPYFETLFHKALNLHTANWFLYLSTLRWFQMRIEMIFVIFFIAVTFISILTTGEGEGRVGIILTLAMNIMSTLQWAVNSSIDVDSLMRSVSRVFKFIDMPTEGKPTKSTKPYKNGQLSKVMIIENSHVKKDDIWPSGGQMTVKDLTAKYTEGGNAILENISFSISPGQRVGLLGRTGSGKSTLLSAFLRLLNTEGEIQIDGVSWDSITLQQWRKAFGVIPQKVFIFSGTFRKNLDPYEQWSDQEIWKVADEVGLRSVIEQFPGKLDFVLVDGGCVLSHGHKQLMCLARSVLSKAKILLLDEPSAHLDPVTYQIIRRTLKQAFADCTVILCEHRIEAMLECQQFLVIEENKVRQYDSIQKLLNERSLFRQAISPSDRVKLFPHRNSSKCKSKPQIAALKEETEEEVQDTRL

Row | Compound | EC50 [µM] | Emax [%]
1 | CC(C)C[C@H]1C(=O)N(CCOC(C)(C)C)CC(=O)N[C@H](Cc2ccccc2)COc2ccc3ccccc3c2C(=O)N[C@H](C(=O)NCCc2ccc3c(c2)OCO3)CC(=O)N1C [Example 335, (3S,7S,13R)-N-(2-(benzo[d][1,3]dioxol-5-yl)ethyl)-13-benzyl-9-(2-(tert-butoxy)ethyl)-7-isobutyl-6-methyl-1,5,8,11-tetraoxo-1,2,3,4,5,6,7,8,9,10,11,12,13,14-tetradecahydronaphtho[1,2-p][1]oxa[4,7,10,14]tetraazacycloheptadecine-3-carboxamide] | 0.27 | 262
2 | COC1CC(CCN2CC(=O)N[C@H](Cc3ccccc3)COc3ccc4ccccc4c3C(=O)N[C@H](C(=O)NCCc3ccc4c(c3)OCO4)CC(=O)N(C)[C@@H](CC(C)C)C2=O)C1 (stereo partly drawn) [Example 336, (3S,7S,13R)-N-(2-(benzo[d][1,3]dioxol-5-yl)ethyl)-13-benzyl-7-isobutyl-9-(2-(3-methoxycyclobutyl)ethyl)-6-methyl-1,5,8,11-tetraoxo-1,2,3,4,5,6,7,8,9,10,11,12,13,14-tetradecahydronaphtho[1,2-p][1]oxa[4,7,10,14]tetraazacycloheptadecine-3-carboxamide] | 0.207 | 212
3 | CN1C(=O)C[C@@H](C(=O)NCCc2ccc3c(c2)OCO3)NC(=O)c2c(ccc3ccccc23)OC[C@@H](Cc2ccccc2)NC(=O)CN(C[C@@H]2CCCCO2)C(=O)[C@@H]1CC1CCC1 [Example 337, (3S,7S,13R)-N-(2-(benzo[d][1,3]dioxol-5-yl)ethyl)-13-benzyl-7-(cyclobutylmethyl)-6-methyl-1,5,8,11-tetraoxo-9-(((S)-tetrahydro-2H-pyran-2-yl)methyl)-1,2,3,4,5,6,7,8,9,10,11,12,13,14-tetradecahydronaphtho[1,2-p][1]oxa[4,7,10,14]tetraazacycloheptadecine-3-carboxamide] | 0.452 | 116
4 | CN1C(=O)C[C@@H](C(=O)NCCc2ccc3c(c2)OCO3)NC(=O)c2c(ccc3ccccc23)OC[C@@H](Cc2ccccc2)NC(=O)CN(C[C@H]2CCCCO2)C(=O)[C@@H]1CC1CCC1 [Example 338, (3S,7S,13R)-N-(2-(benzo[d][1,3]dioxol-5-yl)ethyl)-13-benzyl-7-(cyclobutylmethyl)-6-methyl-1,5,8,11-tetraoxo-9-(((R)-tetrahydro-2H-pyran-2-yl)methyl)-1,2,3,4,5,6,7,8,9,10,11,12,13,14-tetradecahydronaphtho[1,2-p][1]oxa[4,7,10,14]tetraazacycloheptadecine-3-carboxamide] | 0.292 | 173
5 | C#CC[C@H]1C(=O)N(CCC2CCCCC2)CC(=O)N[C@H](Cc2ccccc2)COc2ccc3ccccc3c2C(=O)N[C@H](C(=O)NCCc2ccc3c(c2)OCO3)CC(=O)N1C [Example 339, (3S,7S,13R)-N-(2-(benzo[d][1,3]dioxol-5-yl)ethyl)-13-benzyl-9-(2-cyclohexylethyl)-6-methyl-1,5,8,11-tetraoxo-7-(prop-2-yn-1-yl)-1,2,3,4,5,6,7,8,9,10,11,12,13,14-tetradecahydronaphtho[1,2-p][1]oxa[4,7,10,14]tetraazacycloheptadecine-3-carboxamide] | 0.195 | 237
6 | CN1C(=O)C[C@@H](C(=O)NCCc2ccc3c(c2)OCO3)NC(=O)c2c(ccc3ccccc23)OC[C@@H](Cc2ccccc2)NC(=O)CN(C[C@H]2CCCCO2)C(=O)[C@@H]1CC1CC1 [Example 340, (3S,7S,13R)-N-(2-(benzo[d][1,3]dioxol-5-yl)ethyl)-13-benzyl-7-(cyclopropylmethyl)-6-methyl-1,5,8,11-tetraoxo-9-(((R)-tetrahydro-2H-pyran-2-yl)methyl)-1,2,3,4,5,6,7,8,9,10,11,12,13,14-tetradecahydronaphtho[1,2-p][1]oxa[4,7,10,14]tetraazacycloheptadecine-3-carboxamide] | 0.278 | 139
7 | CN1C(=O)C[C@@H](C(=O)NCCc2ccc3c(c2)OCO3)NC(=O)c2c(ccc3ccccc23)OC[C@@H](Cc2ccccc2)NC(=O)CN(CCC2CCCCC2)C(=O)[C@@H]1CC1CC1 [Example 341, (3S,7S,13R)-N-(2-(benzo[d][1,3]dioxol-5-yl)ethyl)-13-benzyl-9-(2-cyclohexylethyl)-7-(cyclopropylmethyl)-6-methyl-1,5,8,11-tetraoxo-1,2,3,4,5,6,7,8,9,10,11,12,13,14-tetradecahydronaphtho[1,2-p][1]oxa[4,7,10,14]tetraazacycloheptadecine-3-carboxamide] | 0.144 | 237
8 | COc1cccc(CCNC(=O)[C@@H]2CC(=O)N(C)[C@@H](CC(C)C)C(=O)N3CCCC[C@H]3C(=O)N[C@H](Cc3ccccc3)COc3ccc4ncoc4c3C(=O)N2)c1 [Example 342, (8S,12S,18aS,21R)-21-benzyl-12-isobutyl-N-(3-methoxyphenethyl)-11-methyl-6,10,13,19-tetraoxo-6,7,8,9,10,11,12,13,16,17,18,18a,19,20,21,22-hexadecahydro-15H-oxazolo[4′,5′:5,6]benzo[1,2-p]pyrido[2,1-f][1]oxa[4,7,10,14]tetraazacycloheptadecine-8-carboxamide] | 0.464 | 128
9 | COc1cccc(CCNC(=O)[C@@H]2CC(=O)N(C)[C@@H](CC(C)C)C(=O)N3CCCC[C@@H]3C(=O)N[C@H](Cc3ccccc3)COc3ccc4ncoc4c3C(=O)N2)c1 [Example 343, (8S,12S,18aR,21R)-21-benzyl-12-isobutyl-N-(3-methoxyphenethyl)-11-methyl-6,10,13,19-tetraoxo-6,7,8,9,10,11,12,13,16,17,18,18a,19,20,21,22-hexadecahydro-15H-oxazolo[4′,5′:5,6]benzo[1,2-p]pyrido[2,1-f][1]oxa[4,7,10,14]tetraazacycloheptadecine-8-carboxamide] | 0.332 | 270
10 | Cc1cc(CCNC(=O)[C@@H]2CC(=O)N(C)[C@@H](CC(C)C)C(=O)N(CCC3CCCCC3)CC(=O)N[C@H](Cc3ccccc3)COc3cnc4ccccc4c3C(=O)N2)on1 [Example 344, (3S,7S,13R)-13-benzyl-9-(2-cyclohexylethyl)-7-isobutyl-6-methyl-N-(2-(3-methylisoxazol-5-yl)ethyl)-1,5,8,11-tetraoxo-1,2,3,4,5,6,7,8,9,10,11,12,13,14-tetradecahydro-[1]oxa[4,7,10,14]tetraazacycloheptadecino[17,16-c]quinoline-3-carboxamide] | 0.126 | 284
11 | CC(C)C[C@H]1C(=O)N(CCC2CCCCC2)CC(=O)N[C@H](Cc2ccccc2)COc2ccc3c(c2C(=O)N[C@H](C(=O)NCCc2ccc4c(c2)OCO4)CC(=O)N1C)OCO3 [Example 345, (8R,14S,18S)-N-(2-(benzo[d][1,3]dioxol-5-yl)ethyl)-8-benzyl-12-(2-cyclohexylethyl)-14-isobutyl-15-methyl-10,13,16,20-tetraoxo-7,8,9,10,11,12,13,14,15,16,17,18,19,20-tetradecahydro-[1,3]dioxolo[4′,5′:5,6]benzo[1,2-p][1]oxa[4,7,10,14]tetraazacycloheptadecine-18-carboxamide] | 0.095 | 268
12 | COc1cccc(CCNC(=O)[C@@H]2CC(=O)N(C)[C@@H](CC(C)C)C(=O)N(CCC3CCCCC3)CC(=O)N[C@H](Cc3ccccc3)COc3ccc4c(c3C(=O)N2)OCO4)c1 [Example 346, (8R,14S,18S)-8-benzyl-12-(2-cyclohexylethyl)-14-isobutyl-N-(3-methoxyphenethyl)-15-methyl-10,13,16,20-tetraoxo-7,8,9,10,11,12,13,14,15,16,17,18,19,20-tetradecahydro-[1,3]dioxolo[4′,5′:5,6]benzo[1,2-p][1]oxa[4,7,10,14]tetraazacycloheptadecine-18-carboxamide] | 0.106 | 282
13 | [2H]C([2H])([2H])Oc1cccc(CCNC(=O)[C@@H]2CC(=O)N(C)[C@@H](CC(C)C)C(=O)N(CCC3CCCCC3)CC(=O)N[C@H](Cc3ccccc3)COc3ccc4c(c3C(=O)N2)OCO4)c1 [Example 347, (8R,14S,18S)-8-benzyl-12-(2-cyclohexylethyl)-14-isobutyl-N-(3-(methoxy-d3)phenethyl)-15-methyl-10,13,16,20-tetraoxo-7,8,9,10,11,12,13,14,15,16,17,18,19,20-tetradecahydro-[1,3]dioxolo[4′,5′:5,6]benzo[1,2-p][1]oxa[4,7,10,14]tetraazacycloheptadecine-18-carboxamide] | 0.131 | 282
14 | COc1cccc(CCNC(=O)[C@@H]2CC(=O)N(C)[C@@H](CC(C)C)C(=O)N3CCN(C4CC4)C[C@@H]3C(=O)N[C@H](Cc3ccccc3)COc3ccc4ncn(C)c4c3C(=O)N2)c1 [Example 348, (8S,12S,18aR,21R)-21-benzyl-17-cyclopropyl-12-isobutyl-N-(3-methoxyphenethyl)-5,11-dimethyl-6,10,13,19-tetraoxo-6,7,8,9,10,11,12,13,16,17,18,18a,19,20,21,22-hexadecahydro-5H,15H-imidazo[4′,5′:5,6]benzo[1,2-p]pyrazino[2,1-f][1]oxa[4,7,10,14]tetraazacycloheptadecine-8-carboxamide] | 0.34 | 155
15 | CC(C)C[C@H]1C(=O)N(C)CC(=O)N[C@H](Cc2ccccc2)COc2cnc3c(F)cccc3c2C(=O)N[C@H](C(=O)NCCc2ccc3c(c2)OCO3)CC(=O)N1C [Example 349, (3S,7S,13R)-N-(2-(benzo[d][1,3]dioxol-5-yl)ethyl)-13-benzyl-18-fluoro-7-isobutyl-6,9-dimethyl-1,5,8,11-tetraoxo-1,2,3,4,5,6,7,8,9,10,11,12,13,14-tetradecahydro-[1]oxa[4,7,10,14]tetraazacycloheptadecino[17,16-c]quinoline-3-carboxamide] | 0.597 | 258
